According to ChEMBL document CHEMBL3217653, “Design and synthesis of -amino alcohol based -lactamisatin chimeras and preliminary analysis of in vitro activity against the protozoal pathogen Trichomonas vaginalis” (Medchemcomm, 2013):

How the values were obtained:
Trichomonas vaginalis [1] = assay: Antimicrobial activity against Trichomonas vaginalis G3 assessed as growth inhibition at 50 uM after 24 hrs by hemocytometry; type: functional; conditions: G3, 24 h, read-out: GI
Trichomonas vaginalis [2] = assay: Antimicrobial activity against Trichomonas vaginalis G3 assessed as growth inhibition after 24 hrs by hemocytometry; type: functional; conditions: G3, 24 h
[3] = Cytotoxicity against human HeLa cells assessed as cell viability at 10 uM after 24 hrs by trypan blue assay relative to bleomycin; type: cell-based; conditions: read-out: Activity

SMILES | inhibition of growth at 50 µM (Trichomonas vaginalis [1]) [%] | IC50 (Trichomonas vaginalis [2]) [µM] | viability at 24 h, 10 µM [3] [%]
O=C1C(=O)N(CC(CO)N[C@@H]2C(=O)N(C3CCCCC3)[C@@H]2/C=C/c2ccccc2)c2ccc(Cl)cc21 (relative stereo) | 61.8 | – | –
O=C1C(=O)N(CC(CO)N[C@@H]2C(=O)N(c3ccc(Cl)cc3)[C@@H]2/C=C/c2ccccc2)c2ccccc21 (some centres undefined) | 76.2 | 24.7 | –
Cc1ccc(N2C(=O)[C@@H](NC(CO)CN3C(=O)C(=O)c4cc(F)ccc43)[C@H]2/C=C/c2ccccc2)cc1 (relative stereo) | 71.9 | – | –
O=C1C(=O)N(CC(CO)N[C@@H]2C(=O)N(c3ccc(Cl)cc3)[C@@H]2/C=C/c2ccccc2)c2ccc(F)cc21 (some centres undefined) | 77.2 | 27.4 | –
Cc1ccc2c(c1)C(=O)C(=O)N2CC(CO)N[C@@H]1C(=O)N(c2ccc(Cl)cc2)[C@@H]1/C=C/c1ccccc1 (some centres undefined) | 97.6 | 14.6 | –
O=C1C(=O)N(CC(CO)N[C@@H]2C(=O)N(C3CCCCC3)[C@@H]2/C=C/c2ccccc2)c2ccccc21 (relative stereo) | 93.6 | 18.5 | –
Cc1ccc(N2C(=O)[C@@H](NC(CO)CN3C(=O)C(=O)c4cc(Cl)ccc43)[C@H]2/C=C/c2ccccc2)cc1 (relative stereo) | 59.8 | – | –
Cc1ccc2c(c1)C(=O)C(=O)N2CC(CO)N[C@@H]1C(=O)N(C2CCCCC2)[C@@H]1/C=C/c1ccccc1 (relative stereo) | 70.8 | – | –
Cc1ccc(N2C(=O)[C@@H](NC(CO)CN3C(=O)C(=O)c4ccccc43)[C@H]2/C=C/c2ccccc2)cc1 (relative stereo) | 95.3 | 19.2 | –
Cc1ccc(N2C(=O)[C@@H](NC(CO)CN3C(=O)C(=O)c4cc(C)ccc43)[C@H]2/C=C/c2ccccc2)cc1 (relative stereo) | 56 | – | –
O=C1C(=O)N(CC(CO)N[C@@H]2C(=O)N(c3ccc(Cl)cc3)[C@@H]2/C=C/c2ccccc2)c2ccc(Cl)cc21 (relative stereo) | 97.1 | 9.73 | 30
O=C1C(=O)N(CC(CO)N[C@@H]2C(=O)N(C3CCCCC3)[C@@H]2/C=C/c2ccccc2)c2ccc(F)cc21 (relative stereo) | 64.6 | – | –
